This is an account of results in patent US6492385B2, “Quinuclidine-substituted heteroaryl moieties for treatment of disease” (Pharmacia & Upjohn Company, priority 2000, dated 2002).

Structures can show the parent of a compound that is named as a salt.

The assay has as its target α7 nAChR (Rattus norvegicus, UniProt Q05941). Kind of assay: [3H]-MLA competition binding assay, rat brain membranes.

α7 nAChR, sequence (Q05941 23-502): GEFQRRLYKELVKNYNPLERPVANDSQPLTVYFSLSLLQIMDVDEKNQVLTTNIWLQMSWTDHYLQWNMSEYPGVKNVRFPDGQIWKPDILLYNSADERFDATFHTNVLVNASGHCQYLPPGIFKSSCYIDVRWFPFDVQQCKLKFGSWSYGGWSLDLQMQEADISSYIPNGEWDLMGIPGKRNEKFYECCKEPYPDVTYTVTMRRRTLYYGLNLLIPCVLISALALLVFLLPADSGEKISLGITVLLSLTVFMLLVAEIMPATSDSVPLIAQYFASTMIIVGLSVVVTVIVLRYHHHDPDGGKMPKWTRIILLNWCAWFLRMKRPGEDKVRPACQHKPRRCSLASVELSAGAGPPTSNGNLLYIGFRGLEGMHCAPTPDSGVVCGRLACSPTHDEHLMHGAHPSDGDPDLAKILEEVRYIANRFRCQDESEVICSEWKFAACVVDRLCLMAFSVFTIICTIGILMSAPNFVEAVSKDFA

Take `COc1ccc(C(=O)N[C@H]2CN3CCC2CC3)s1` [Example 19, N-[(3R)-1-Azabicyclo[2.2.2]oct-3-yl]-5-methoxy-thiophene-2-carboxamide Hydrochloride]: the Ki (as a rule, a dissociation constant, usually derived from enzyme kinetics or from competition with a known ligand) is 2 to 4 nM.
Next, `O=C(N[C@H]1CN2CCC1CC2)c1ccc(-c2ccccc2O)s1` [Example 41, N-[(3R)-1-Azabicyclo[2.2.2]oct-3-yl]-5-(2-hydroxyphenyl)-thiophene-2-carboxamide Hydrochloride]: 3 to 4 nM.
